# Data published in US7211602B2, “Treatment of neurodegenerative disorders through the modulation of the polyamine pathway” (ALS Therapy Development Foundation, Inc., priority 2001, dated 2007).
# Like-named read-outs stand apart in the source and are kept apart here.
# Key:
# [1] = test system: patients with advanced non-small cell lung cancer; settings: Hahm et al. 2002; cited from earlier work
# ODC = settings: cited from earlier work
# Excerpt for SOD1 G93A mice: • (i) Model Description: The SOD1 G93A (high copy) mouse model was used as the model for ALS. This mouse model carries 25 copies of the human G93A SOD mutation and is driven by the endogenous promoter. Survival in the mouse is copy dependent. The high copy G93A has a median survival of around 128 days. High molecular weight complexes of mutant SOD protein are seen in the spinal cord beginning around day 30. At day 60 reactive astrocytosis (GFAP reactive) are observed; activated microglia are observed from day 90 onwards.
# DFMO was obtained in oral form from ILEX Oncology, Inc (San Antonio, Tex.). • (iv) Methods: Forty (n=40) SOD1 G93A high copy mice obtained from Jackson Laboratory (Bar Harbor, Me.) were separated into two groups of twenty (n=20) with an equal number of males (n=10) and females (n=10) in each group. The groups were also litter matched to reduce group variation. Male animals were singly housed and females were group housed to conserve space. […] When animals had difficulty in moving and taking care of themselves chow and water were replaced with food pellets in bedding and Jell-O for water. • (v) Pharmacological Agent Delivery: All pharmacological agents were administered to SOD1 G93A mice. DFMO was delivered according to a chronic delivery protocol applied in the human glioblastoma trial (UCSF Clinical trial protocol of ALS).
# In Example 2, the animals were dosed at 3200 mg/Kg/day of DFMO in drinking water for 21 days followed by a 7 day drug holiday (no DFMO). In Example 3, the animals were continually dosed at 3200 mg/Kg/day of DFMO in drinking water. Controls animals were given water as vehicle. All treatments are performed 7 days per week and treatment was initiated at day 60 of life. The treated group continued to receive 3200 mg/kg/day of DFMO in drinking water until a neurological score of 2 (See section (vi) below) at which point drug was delivered via intraperitineal injection (IP) injection. When a neurological score of 2 is attained, the animals are no longer capable of drinking themselves due to paralysis. At this point, the same dosage of DFMO is administered to the animal in IP injection form. Controls were given water as vehicle until a neurological score of 2 at which point they were injected with saline as vehicle.
# In Example 6, hydroxyurea was administered by intraperitineal injection at a dose of 250 mg/Kg/day once daily for 7 days a week, beginning at day 50 until day 110.
# The animals are sacrificed at this stage if alive. • (vii) End Points and Statistics: The primary end point is survival with secondary end points of neurological score and body weight. Neurological score observations and body weight are made and recorded five days per week. • (viii) Statistical Analysis: Statistical analysis on body weight and neurological score was performed using mixed linear model repeated measure ANOVA. Survival analysis was performed by Kaplan-Meier analysis using the frailty model for sex and litter correction.
smiles,measurement,setting,value
"NCCCC(N)(C(=O)O)C(F)F (racemic) [DFMO, 2-(Difuoromethyl)-DL-ornithine]","effect in male mice, ongoing IP injection study","SOD1 G93A mice; IP injection, 3200 mg/kg, male mice",positive male trend
same,Percent survival analysis: life span,"SOD1 G93A mice; continuous dosing 3200 mg/Kg/day in drinking water, no drug holiday, until death, FIGS. 4, 6 and 8",extended the life span
same,"Neurological score analysis, combined male and female","SOD1 G93A mice; continuous dosing 3200 mg/Kg/day, combined male and female, FIG. 5",protective
same,"Neurological score analysis, female","SOD1 G93A mice; continuous dosing 3200 mg/Kg/day, FIG. 9",protective
same,"Neurological score analysis, male","SOD1 G93A mice; continuous dosing 3200 mg/Kg/day, male, FIG. 7",protective
same,"Neurological score analysis, combined results","SOD1 G93A mice; discontinuous dosing 3200 mg/Kg/day, combined male and female mice",No effect
same,"Neurological score analysis, female mice","SOD1 G93A mice; discontinuous dosing 3200 mg/Kg/day, female mice, during the drug delivery period, FIG. 3",protective
same,"Neurological score analysis, male mice","SOD1 G93A mice; discontinuous dosing 3200 mg/Kg/day, male mice",No effect
same,Percent survival analysis: onset of disease and survival,"SOD1 G93A mice; discontinuous dosing, 3200 mg/Kg/day in drinking water, 21 days on / 7 day holiday, FIG. 2",delays the onset of disease and extends the survival
same,deaths of animals in the treatment group that occurred during the drug holiday or a few days immediately succeeding the holiday,"SOD1 G93A mice; female SOD1 G93A mice, 3200 mg/Kg/day in drinking water for 21 days followed by 7 day drug holiday, control group 30%, FIG. 2",70%
"CCNCCCNCCCNCCCNCC [DENSPM, N(1),N(11)-diethylnorspermine]",safety of administration to patients,[1],minimal toxicity
same,"Neurological score analysis, female","SOD1 G93A mice; intraperitoneal 24 mg/kg/day twice daily till death, FIG. 13",protective
same,Percent survival analysis: onset of disease and survival,"SOD1 G93A mice; intraperitoneal 24 mg/kg/day twice daily, 7 days a week till death, female mice, FIG. 12",delays the onset of disease and extends the survival
NC(=O)NO [hydroxyurea],Percent survival analysis: life span,"SOD1 G93A mice; intraperitoneal 250 mg/Kg/day once daily, day 50 until day 110, female mice, FIG. 10",extended the life span
same,"Neurological score analysis, female","SOD1 G93A mice; intraperitoneal 250 mg/Kg/day once daily, day 50 until day 110, FIG. 11",protective
NCCCCNCCCN [spermidine],concentration in the culture medium that can inhibit ODC production for hours,ODC,50 µM
